Results reported in patent publication US5821261A, “Substituted saturated aza heterocycles as inhibitors of nitric oxide synthase” (Merck & Co., Inc., priority 1996, dated 1998).
Structures can show the parent of a compound that is named as a salt.

Each molecule was assayed against Human Inducible Nitric Oxide Synthase (Homo sapiens, UniProt P35228) (assay: Inhibition of human inducible nitric oxide synthase (formation of L-[2,3,4,5-3H]citrulline from L-[2,3,4,5-3H]arginine)). Conditions: 1 μM L-Arg, pH 7.5, room temperature, 30 minutes, aqueous DMSO (max. 5%).
Type: biochemical
Excerpt: 26, pp. 258-264. […] J Lowenstein and S. H. Snyder in Methods in Enzymology, Vol. 233, L. Packer, ed., Academic Press, NY, 1994, Ch. 26, pp. 264-269. Various assays for NOS activity have been reported in the literature and are reviewed in the following: M. E. Murphy and E. Noack in Methods in Enzymology, Vol. 233, L. Packer, ed., Academic Press, NY, 1994, Ch. 26, pp. 240-250 and J. M. Hevel and M. A. Marletta in Methods in Enzymology, Vol. 233, L. Packer, ed., Academic Press, NY, 1994, Ch. 26, pp. 250-258. Details for the assay protocols to measure NOS activity are as follows: […] The incubation buffer (100 μL) contained; 100 mM TES, pH 7.5, 5 μM FAD, 5 μM FMN, 10 μM BH4, 0.5 mM NADPH, 0.5 mM DTT, 0.5 mg/mL BSA, 2 mM CaCl2, 10 μg/mL calmodulin (bovine), 1 μM L-Arg, 0.2 μCi L-[2,3,4,5-^3 H]Arg, and the inhibitor in aqueous DMSO (max. 5%). The reaction is initiated by addition of enzyme. Incubations are performed at room temperature for 30 minutes and stopped by the addition of an equal volume of quenching buffer consisting of 200 mM sodium citrate, pH 2.2, 0.02% sodium azide. Reaction products are separated by passing through a cation exchange resin and quantitated as cpm by scintillation counting. Percent inhibition is calculated relative to enzyme incubated without inhibitor according to: […]. Illustrative of the utility of the compounds of Formula I is the ability of such compounds to inhibit NO synthase as shown in Table 1 and as measured by the assay described above: […]

Row | Compound | IC50 [µM]
1 | N=C(N)NC[C@@H]1CN[C@H](C(=O)O)C1 [compound 1, (4S)-4-(Guanidinomethyl)-L-Proline Dihydrochloride] | 7.1
2 | N=C(N)N[C@@H]1CN[C@H](C(=O)O)C1 [compound 3, (4S)-4-Guanidino-L-Proline Dihydrochloride] | 2.7
3 | COC(=O)[C@@H]1C[C@@H](CNC(=N)N)CN1 [compound 6, (4R)-4-(Guanidinomethyl)-L-Proline Methyl Ester Dihydrochloride] | 11

More lines, in order of falling IC50, values ahead:

Row | IC50 [µM] | Compound
4 | 111 | N=C(N)SC[C@@H]1CN[C@H](C(=O)O)C1 [compound 5, (4S)-4-[(Isothioureido)methyl]-L-Proline Dihydrochloride]
5 | 3.5 | N=C(N)NC[C@H]1CN[C@H](C(=O)O)C1 [compound 2, (4R)-4-(Guanidinomethyl)-L-Proline Dihydrochloride]
